Source: patent US6596709B1, “6-sulphanoyl-3-quinolylphosphonic acid compounds” (Les Laboratoires Servier, priority 2000, dated 2003)
Like-named read-outs stand apart in the source and are kept apart here.

Legend:
[1] = Journal of Cerebral Blood Flow and Metabolism, 1994, 14, 251-261; cited from earlier work
[2] = Nephrotoxicity of prior-art compounds of EP 0 640 612 found by the Applicant; type: in vivo; conditions: no method given

In the case of NS(=O)(=O)c1cccc2c3c(cc([N+](=O)[O-])c12)=NC(=O)C(=O)N=3 [NBQX, 6-nitro-7-sulphamoyl-benzo[f]quinoxaline-2,3-dione], the Nephrotoxicity [1] is listed as “nephrotoxicity”.

In the case of O=c1[nH]c2cc(Cl)c(Cl)cc2cc1P(=O)(O)O [(6,7-dichloro-2-oxo-1,2-dihydro-3-quinolyl)phosphonic acid], the Nephrotoxicity [2] is reported as “serious problems of nephrotoxicity”.
